Experimental data: US12466849B2, “Anti-viral and anti-tumoral compounds” (YEDA RESEARCH AND DEVELOPMENT CO. LTD, priority 2020, dated 2025)
Values after ≈ are worked out from the molar mass of the structure shown.

How the values were obtained:
[1] = molecular target: T1, SARS-Cov2 RdRp (nsp12-nsp7-nsp8) (Severe acute respiratory syndrome coronavirus 2, UniProt P0DTD1); format: biochemical; conditions: primer extension; analog at 100 uM, printed 100 mM
in vitro [2] = conditions: male, SD, rat, plasma
[3] = test system: Human cytomegalovirus (HCMV), strain AD169; conditions: for EC50 / EC90: drug concentration 0.048-150 μM
HCMV AD169 = test: HCMV plaque reduction assay, MRC-5 cells, strain AD169; format: cell-based, Human cytomegalovirus; conditions: hCMV AD169, MRC5 cells, plaque assay, 6-days duration
in vitro [4] = conditions: both, human, plasma
[5] = molecular target: T1, SARS-Cov2 RdRp (nsp12-nsp7-nsp8); format: biochemical; conditions: after addition of GTP and CTP (third and fourth nucleotides)
[6] = test system: influenza/California/07/2009 (H1N1)pdm09; conditions: for SI50 (SI): Influenza(H1N1), SI = CC50/EC50
[7] = test system: Rift Valley fever virus (RVFV)
[8] = test system: Tacaribe virus (TCRV, TRVL-11573); parameters: SI50 (SI): unit not given beside the values
[9] = test system: Influenza B/Florida/4/2006 (Yamagata); conditions: for SI50 (SI): Influenza B, SI = CC50/EC50
[10] = test system: respiratory syncytial virus (RSV, A2); conditions: for SI50 (SI): RSV, SI = CC50/EC50
[11] = test system: SARS-CoV-2 (USA-WA1/2020); conditions: for SI50 (SI): SARS-CoV-2, SI = CC50/EC50
[12] = test system: dengue virus-2 (DENV-2, New Guinea C); conditions: SI = CC50/EC50
[13] = test system: Epstein-Barr virus (EBV), Akata strain; parameters: SI50 / SI90: unit not given beside the values
[14] = test system: enterovirus-68 (EV-68, US/DY/14-18953); conditions: for SI50 (SI): EV-68, SI = CC50/EC50
[15] = test system: BK virus (BKV), Gardner strain; parameters: SI50 / SI90: unit not given beside the values
MERS-CoV (EMC) = format: cell-based; conditions: SI = CC50/EC50

Nc1ccn([C@H]2CC[C@@H](CO)O2)c(=O)n1 [2-3 Dideoxycytidine]
CC50 (adenovirus-5 (Ad5)): >100 mg/L
EQ50 (adenovirus-5 (Ad5)): 1.8 µg/mL
SI (adenovirus-5 (Ad5)): >56

O=c1ccn([C@@H]2O[C@H](COP(=O)(O)OP(=O)(O)OP(=O)(O)O)C[C@H]2O)c(=O)[nH]1 [3′-dUTP, 3′-deoxyuracil triphosphate, reference compound]
incorporation into RNA by SARS-Cov2 RdRp (in words) [1]: same level of incorporation as ddhUTP

COc1ccc([C@@H]2Sc3ccccc3N(CCN(C)C)C(=O)[C@@H]2OC(C)=O)cc1 [Diltiazem]
half-life at 0.75 µM (in vitro [2]): 2.08 h

Nc1nc2c(ncn2COC(CO)CO)c(=O)[nH]1 [GCV]
CC50 [3]: > 150 µM
EC50 [3]: 0.19 µM
EC90 [3]: > 150 µM

Nc1nc2c(ncn2COC(CO)CO)c(=O)[nH]1 [Ganciclovir, reference compound]
EC50 (HCMV AD169): 7.36 µM

C#C[C@@]1(O)[C@H](O)[C@@H](CO)O[C@H]1n1ccc2c(N)ncnc21 [NITD008, reference compound]
CC50 (Zika virus): 44 mg/L (≈ 0.152 mM)
EQ50 (Zika virus): 1.8 µg/mL
SI (Zika virus): 24

CC(C)[N+](C)(CCOC(=O)C1c2ccccc2Oc2ccccc21)C(C)C [Propantheline]
half-life at 0.75 µM (in vitro [4]): 0.28 h

N#C[C@@]1(c2ccc3c(N)ncnn23)O[C@H](COP(=O)(O)OP(=O)(O)OP(=O)(O)O)[C@@H](O)[C@H]1O [REM-TP, Remdesivir-TP, reference compound]
chain termination of RNA synthesis (in words) [5]: did not cause chain termination
incorporation into RNA by SARS-Cov2 RdRp (in words) [1]: incorporated into RNA as ATP analogs

NC(=O)c1ncn([C@@H]2O[C@H](CO)[C@@H](O)[C@H]2O)n1 [Ribavirin, Ribavirin (Virazole), reference compound]
CC50 [6]: > 1000 mg/L
SI50 (SI) [6]: >130
SI [7]: 62
EQ50 ([7]; RVFV, Vero 76 cells, positive control): 14 µg/mL
CC50 ([7]; Vero 76 cells without virus, positive control): 870 mg/L (≈ 3.56 mM)
CC50 [8]: > 1000 mg/L
SI50 (SI) [8]: >190
SI (influenza A(H5N1)): >560
CC50 (influenza A(H5N1); MDCK cells without virus, positive control): >1000 mg/L
EQ50 (influenza A(H5N1); influenza A(H5N1), MDCK cells, positive control): 1.8 µg/mL
CC50 [9]: > 1000 mg/L
SI50 (SI) [9]: >130
CC50 [10]: 310 mg/L
SI50 (SI) [10]: 16
CC50 (Influenza B): >1000 mg/L
EQ50 (Influenza B): 1.4 µg/mL
SI (Influenza B): >710
CC50 (influenza A(H1N1)): >1000 mg/L
EQ50 (influenza A(H1N1)): 4.6 µg/mL
SI (influenza A(H1N1)): >220
CC50 (TCRV): 820 mg/L (≈ 3.36 mM)
EQ50 (TCRV): 13 µg/mL
SI (TCRV): 63
CC50 (RSV): 42 mg/L (≈ 0.172 mM)
EQ50 (RSV): 7.3 µg/mL
SI (RSV): 5.8

CC(C)(C)C(=O)SCCOP(=O)(OCCSC(=O)C(C)(C)C)OCC1=CC(O)C(n2cnc3c(N)ncnc32)O1 (centres unmarked) [SATE-ddhA]
CC50 [6]: 180 µM
SI50 (SI) [6]: 0
CC50 [11]: 49 µM
SI50 (SI) [11]: 0
SI50 (SI) [12]: 0
CC50 [8]: 58 µM
SI50 (SI) [8]: 0
Activity [13]: MOD (key: NA (Not Active) SI50 = 0-3.9; MOD (Moderately Active) SI50 = 4-9.9; HI (Highly Active) SI50 = ≥10)
CC50 [13]: 55.8 µM
EC50 [13]: 12.9 µM
EC90 [13]: 26.8 µM
SI50 [13]: 4
SI90 [13]: 2
activity against EBV (in words) [13]: moderately active
CC50 [9]: 180 µM
SI50 (SI) [9]: 0
CC50 [14]: 2 µM
SI50 (SI) [14]: 0
CC50 [10]: 170 µM
SI50 (SI) [10]: 0
Activity [15]: NA (key: NA (Not Active) SI50 = 0-3.9; MOD (Moderately Active) SI50 = 4-9.9; HI (Highly Active) SI50 = ≥10)
CC50 [15]: 89.7 µM
EC50 [15]: > 30 µM
EC90 [15]: > 30 µM
SI50 [15]: <3
SI90 [15]: <3
SI50 (SI) (MERS-CoV (EMC)): 0

CC(C)(C)C(=O)SCCOP(=O)(OCCSC(=O)C(C)(C)C)OCC1=CC(O)C(n2ccc(N)nc2=O)O1 (centres unmarked) [SATE-ddhC]
CC50 [6]: 550 µM
SI50 (SI) [6]: 0
CC50 [11]: 410 µM
SI50 (SI) [11]: 0
SI50 (SI) [12]: 0
CC50 [8]: 210 µM
SI50 (SI) [8]: 0
Activity [13]: MOD (key: NA (Not Active) SI50 = 0-3.9; MOD (Moderately Active) SI50 = 4-9.9; HI (Highly Active) SI50 = ≥10)
CC50 [13]: 124 µM
EC50 [13]: 18.8 µM
EC90 [13]: > 30 µM
SI50 [13]: 7
SI90 [13]: <4
activity against EBV (in words) [13]: moderately active
CC50 [9]: > 1000 µM
SI50 (SI) [9]: 0
CC50 [14]: > 100 µM
SI50 (SI) [14]: 0
CC50 [10]: 540 µM
SI50 (SI) [10]: 0
Activity [15]: NA (key: NA (Not Active) SI50 = 0-3.9; MOD (Moderately Active) SI50 = 4-9.9; HI (Highly Active) SI50 = ≥10)
CC50 [15]: > 150 µM
EC50 [15]: 96 µM
EC90 [15]: > 150 µM
SI50 [15]: >2
SI90 [15]: 1
SI50 (SI) (MERS-CoV (EMC)): 0

CC(C)(C)C(=O)SCCOP(=O)(OCCSC(=O)C(C)(C)C)OCC1=CC(O)C(n2cnc3c(=O)[nH]c(N)nc32)O1 (centres unmarked) [SATE-ddhG]
CC50 [6]: > 1000 µM
SI50 (SI) [6]: 0
CC50 [11]: > 1000 µM
SI50 (SI) [11]: 0
SI50 (SI) [12]: 0
CC50 [8]: 610 µM
SI50 (SI) [8]: 0
Activity [13]: HI (key: NA (Not Active) SI50 = 0-3.9; MOD (Moderately Active) SI50 = 4-9.9; HI (Highly Active) SI50 = ≥10)
CC50 [13]: 106 µM
EC50 [13]: 2.98 µM
EC90 [13]: > 30 µM
SI50 [13]: 35
SI90 [13]: <4
activity against EBV (in words) [13]: highly active
CC50 [9]: > 1000 µM
SI50 (SI) [9]: 0
CC50 [14]: 83 µM
SI50 (SI) [14]: 0
CC50 [10]: > 1000 µM
SI50 (SI) [10]: 0
Activity [15]: HI (key: NA (Not Active) SI50 = 0-3.9; LO (Slightly Active) SI50 = 4-9.9; MOD (Moderately Active) SI50 = 10-19.9; HI (Highly Active) SI50 = ≥20)
CC50 [15]: > 150 µM
EC50 [15]: 5.32 µM
EC90 [15]: 5.86 µM
SI50 [15]: >28
SI90 [15]: >26
activity against BK virus (in words) [15]: highly active
SI50 (SI) (MERS-CoV (EMC)): 0

CC(C)(C)C(=O)SCCOP(=O)(OCCSC(=O)C(C)(C)C)OCC1=CC(O)C(n2cnc3c(=O)[nH]cnc32)O1 (centres unmarked) [SATE-ddhI]
CC50 [6]: > 1000 µM
SI50 (SI) [6]: 0
CC50 [11]: 530 µM
SI50 (SI) [11]: 0
SI50 (SI) [12]: 0
CC50 [8]: 900 µM
SI50 (SI) [8]: 0
Activity [13]: MOD (key: NA (Not Active) SI50 = 0-3.9; MOD (Moderately Active) SI50 = 4-9.9; HI (Highly Active) SI50 = ≥10)
CC50 [13]: > 150 µM
EC50 [13]: 18.8 µM
EC90 [13]: 81.9 µM
SI50 [13]: >8
SI90 [13]: >2
activity against EBV (in words) [13]: moderately active
CC50 [9]: > 1000 µM
SI50 (SI) [9]: 0
CC50 [14]: > 100 µM
SI50 (SI) [14]: 0
CC50 [10]: > 1000 µM
SI50 (SI) [10]: 0
Activity [15]: NA (key: NA (Not Active) SI50 = 0-3.9; MOD (Moderately Active) SI50 = 4-9.9; HI (Highly Active) SI50 = ≥10)
CC50 [15]: > 150 µM
EC50 [15]: 115 µM
EC90 [15]: > 150 µM
SI50 [15]: >1
SI90 [15]: 1
SI50 (SI) (MERS-CoV (EMC)): 0

C[C@H](Cn1cnc2c(N)ncnc21)OCP(=O)(O)O [TNV, reference compound]
CC50 [13]: > 150 µM
EC50 [13]: 45.8 µM
EC90 [13]: > 150 µM
SI50 [13]: >3
SI90 [13]: 1
CC50 (JC virus (JCV)): > 150 µM
EC50 (JC virus (JCV)): > 150 µM
EC90 (JC virus (JCV)): > 150 µM
CC50 [15]: > 150 µM
EC90 [15]: > 150 µM
SI90 [15]: 1
CC50 [3]: > 150 µM
EC50 [3]: > 150 µM
EC90 [3]: > 150 µM

Nc1ccn([C@@H]2OC(CO)=C[C@H]2O)c(=O)n1 [ddhC, ddh cytidine]
activity against enterovirus EV-68 (in words) (enterovirus-68 (EV-68)): exhibits some activity

Nc1nc2c(ncn2[C@@H]2OC(COP(=O)(O)OP(=O)(O)OP(=O)(O)O)=C[C@H]2O)c(=O)[nH]1 [ddhGTP, 3′-deoxy-3′,4′-didehydro-guanosine-triphosphate]
chain termination of RNA synthesis (in words) [5]: caused chain termination of RNA synthesis
incorporation into RNA by SARS-Cov2 RdRp (in words) [1]: incorporates onto RNA as GTP analog
